Patent US20210206773A1, “DRUG FOR TREATING DISORDERS OF CORNEAL EPITHELIUM” (EA PHARMA CO., LTD., priority 2014, published 2021)

What was measured:
[1] = tested on: muc1 and muc16 messenger RNAs in HCE cells; assay: Change in amount of expression of mucin messenger RNA (real time RT-PCR); format: cell-based, human; details: 3 hours and 24 hours, FIG. 8
Procedure: HCE cells were cultured in a medium containing Compound (1aa). The amounts of expression of muc1 and muc16 messenger RNAs after culturing for 3 hours and 24 hours were measured by a real time RT-PCR method. Relative values of the amount of expression with respect to the amount of expression of actin messenger RNA were calculated, and the results are presented in FIG. 8. The value is expressed as average value±S.D. (triplicate), *P<0.05; and **P<0.01.

HCE cells = assay: Suppressive effect on apoptosis under hyperosmotic conditions (caspase-3-like activity, fluorescent peptide substrate); format: cell-based, human; details: 160 mM NaCl, 3 hours and 6 hours, FIG. 5
Procedure: HCE cells were cultured in a hyperosmotic medium containing Compound (1aa) and 160 mM NaCl. After culturing for 3 hours and 6 hours, caspase-3-like activity, which is a marker for apoptosis, was measured using a fluorescent peptide substrate, and the results are presented in FIG. 5. The value is expressed as average value±S.D. (triplicate), **P<0.01, and the term n.s. means “not significant”.

dry eye model rat = assay: Therapeutic effect on corneal surface injury in dry eye model rat (lacrimal glands removed); format: in vivo; details: 5 μL of aqueous solution 0.05 w/v % (1.5 mM) three times a day, 1 to 5 weeks after removal of lacrimal glands
Procedure: The lacrimal glands of a rat were removed, and a dry eye model was produced. After 1 to 5 weeks from the removal of lacrimal glands, 5 μL of an aqueous solution containing Compound (1aa) (0.05 w/v %, 1.5 mM) was administered to the rat three times a day. The value is expressed as average value±S.E.M., *P<0.05; and **P<0.01.

[2] = tested on: HCE cells (human corneal epithelial cells); assay: Suppressive effect on cell injury under hyperosmotic conditions (MTT method); format: cell-based; details: 24 hours, hyperosmotic medium with 150 mM NaCl and 160 mM NaCl, or 320 mM glucose, FIG. 1 to FIG. 3
Procedure: HCE cells (human corneal epithelial cells) were cultured for 24 hours in a hyperosmotic medium containing a compound of Formula (1aa) (hereinafter, Compound (1aa)) (as a hydrate). The medium was adjusted to fulfill the hyperosmotic conditions using 150 mM NaCl and 160 mM NaCl, or 320 mM glucose. The number of live cells was measured by the MTT method, and relative values of light absorbance with respect to the light absorbance of the control (isotonic pressure conditions) were calculated. The value is expressed as average value±S.D. (n=3), **P<0.01.

[3] = tested on: HCE cells (human corneal epithelial cells); assay: Suppressive effect on cell injury caused by ethanol (MTT method); format: cell-based; details: 4 v/v % ethanol, FIG. 4
Procedure: HCE cells (human corneal epithelial cells) were cultured in a medium containing Compound (1aa) and 4 v/v % ethanol. The number of live cells was measured by the MTT method, and relative values of light absorbance with respect to the light absorbance of the control (absence of ethanol) were calculated. The value is expressed as average value±S.D. (n=3), *P<0.05; and **P<0.01.

For `O=C1NCC2=C1[C@@H](c1ccccc1)N(C(=O)CO)[C@@H]1CCCC[C@H]1N2` [Compound (1aa), (1R,8R,10R)-9-(2-hydroxyacetyl)-8-phenyl-2,5,9-triazatricyclo[8.4.0.0^3,7]tetradeca-3(7)-en-6-one], the “amount of expression of mucin (muc1 and muc16 messenger RNAs relative to actin messenger RNA)” value [1] was “increases the amount of expression of mucin”, the “hyperosmotic stress-dependent apoptosis (caspase-3-like activity)” value (HCE cells) was “noticeably suppressed hyperosmotic stress-dependent apoptosis” and the “amount of lacrimal fluid (cotton thread test)” value (dry eye model rat; FIG. 6) was “increasing the amount of lacrimal fluid”. The “injury of the corneal surface (fluorescein scores)” value (dry eye model rat; FIG. 7) was “suppressed injury of the corneal surface”, the “survival rate of corneal epithelial cells under hyperosmotic conditions (number of live cells, relative light absorbance vs control)” value [2] was “noticeably suppressed the decrease in the survival rate of corneal epithelial cells” and the “survival rate of corneal epithelial cells with ethanol (number of live cells, relative light absorbance vs control)” value [3] was “noticeably suppressed the decrease in the survival rate of corneal epithelial cells”.
